The values that follow come from ChEMBL document CHEMBL5653631, “A Potent and Selective ULK1 Inhibitor Suppresses Autophagy and Sensitizes Cancer Cells to Nutrient Stress” (iScience, 2018).

As usually defined, the inhibition is the drop in the measured response relative to a control, in per cent.

Test [1] has as its target T1, Serine/threonine-protein kinase Nek9 (Homo sapiens) (UniProt Q8TD19).
T1 sequence (whole entry): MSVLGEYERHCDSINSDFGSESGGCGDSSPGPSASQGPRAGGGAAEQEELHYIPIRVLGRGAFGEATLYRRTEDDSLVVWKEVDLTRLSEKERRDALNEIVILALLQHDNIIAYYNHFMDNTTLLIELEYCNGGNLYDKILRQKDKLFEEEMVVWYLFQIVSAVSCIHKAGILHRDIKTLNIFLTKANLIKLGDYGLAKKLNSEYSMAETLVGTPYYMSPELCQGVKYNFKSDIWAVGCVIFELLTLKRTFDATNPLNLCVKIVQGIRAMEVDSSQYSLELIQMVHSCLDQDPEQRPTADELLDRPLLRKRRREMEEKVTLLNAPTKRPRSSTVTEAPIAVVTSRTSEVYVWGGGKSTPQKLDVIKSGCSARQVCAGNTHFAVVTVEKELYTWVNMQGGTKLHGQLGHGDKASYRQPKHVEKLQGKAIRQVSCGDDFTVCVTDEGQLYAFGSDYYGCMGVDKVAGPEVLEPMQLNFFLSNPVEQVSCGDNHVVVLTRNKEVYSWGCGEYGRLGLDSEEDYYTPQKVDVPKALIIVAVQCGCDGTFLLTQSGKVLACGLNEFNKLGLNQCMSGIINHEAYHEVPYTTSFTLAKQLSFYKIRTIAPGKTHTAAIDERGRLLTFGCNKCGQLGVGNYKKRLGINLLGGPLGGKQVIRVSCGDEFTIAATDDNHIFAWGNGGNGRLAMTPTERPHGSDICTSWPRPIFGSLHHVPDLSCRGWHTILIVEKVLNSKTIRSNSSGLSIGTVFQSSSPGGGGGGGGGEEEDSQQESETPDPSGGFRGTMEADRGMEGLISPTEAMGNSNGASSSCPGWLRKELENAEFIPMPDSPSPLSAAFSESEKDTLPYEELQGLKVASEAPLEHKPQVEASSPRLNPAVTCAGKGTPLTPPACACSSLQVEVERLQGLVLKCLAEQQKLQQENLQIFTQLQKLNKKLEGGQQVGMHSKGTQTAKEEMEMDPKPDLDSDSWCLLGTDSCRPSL
As to the kind of experiment: Inhibition of human recombinant NEK9 at 40 nM in presence of ATP by radiometric assay relative to control.

For test [2], the target named is Rho-associated protein kinase 1 (Homo sapiens) (UniProt Q13464). The test can be described thus: Inhibition of human recombinant ROCK1 at 40 nM related to control ULK1.
Sequence of Rho-associated protein kinase 1 (Homo sapiens) (Q13464 2-1354 limits assumed): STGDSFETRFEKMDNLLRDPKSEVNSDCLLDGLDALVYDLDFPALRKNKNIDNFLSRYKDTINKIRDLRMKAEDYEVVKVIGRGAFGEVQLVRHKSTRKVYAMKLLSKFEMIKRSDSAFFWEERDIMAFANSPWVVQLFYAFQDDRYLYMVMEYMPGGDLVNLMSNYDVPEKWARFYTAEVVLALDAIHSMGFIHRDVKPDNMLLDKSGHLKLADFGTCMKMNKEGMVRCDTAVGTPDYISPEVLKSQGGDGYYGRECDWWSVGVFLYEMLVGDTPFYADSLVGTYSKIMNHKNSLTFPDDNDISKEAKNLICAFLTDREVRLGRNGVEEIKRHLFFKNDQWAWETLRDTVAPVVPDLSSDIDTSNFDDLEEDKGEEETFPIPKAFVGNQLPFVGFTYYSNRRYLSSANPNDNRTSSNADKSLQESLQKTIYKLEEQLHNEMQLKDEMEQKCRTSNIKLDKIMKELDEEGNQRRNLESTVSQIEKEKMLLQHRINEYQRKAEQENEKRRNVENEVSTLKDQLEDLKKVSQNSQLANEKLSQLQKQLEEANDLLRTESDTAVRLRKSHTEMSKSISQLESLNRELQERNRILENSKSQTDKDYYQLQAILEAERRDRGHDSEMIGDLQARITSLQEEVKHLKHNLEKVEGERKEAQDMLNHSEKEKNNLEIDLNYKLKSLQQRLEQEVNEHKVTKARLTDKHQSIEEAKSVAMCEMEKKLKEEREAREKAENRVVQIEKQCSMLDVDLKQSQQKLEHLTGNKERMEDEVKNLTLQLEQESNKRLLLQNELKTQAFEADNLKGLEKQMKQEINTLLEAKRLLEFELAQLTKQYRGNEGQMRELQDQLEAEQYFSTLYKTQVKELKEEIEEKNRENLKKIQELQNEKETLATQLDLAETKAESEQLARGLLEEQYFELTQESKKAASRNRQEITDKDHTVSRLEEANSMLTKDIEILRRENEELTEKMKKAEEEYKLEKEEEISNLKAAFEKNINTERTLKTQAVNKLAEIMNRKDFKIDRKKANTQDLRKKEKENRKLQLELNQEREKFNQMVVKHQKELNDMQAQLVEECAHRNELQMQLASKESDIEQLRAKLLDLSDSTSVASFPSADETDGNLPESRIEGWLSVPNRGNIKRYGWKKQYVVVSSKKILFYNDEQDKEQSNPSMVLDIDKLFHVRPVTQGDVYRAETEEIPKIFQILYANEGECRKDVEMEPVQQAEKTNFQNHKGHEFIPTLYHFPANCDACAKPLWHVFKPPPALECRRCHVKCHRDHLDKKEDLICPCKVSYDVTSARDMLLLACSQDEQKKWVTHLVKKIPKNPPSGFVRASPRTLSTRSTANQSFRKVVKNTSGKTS
The target of test [3] is Serine/threonine-protein kinase Nek7 (Homo sapiens) (UniProt Q8TDX7). As to the kind of experiment: Inhibition of human recombinant NEK7 at 40 nM related to control ULK1.
Sequence of Serine/threonine-protein kinase Nek7 (Homo sapiens) (Q8TDX7 whole entry, looked up): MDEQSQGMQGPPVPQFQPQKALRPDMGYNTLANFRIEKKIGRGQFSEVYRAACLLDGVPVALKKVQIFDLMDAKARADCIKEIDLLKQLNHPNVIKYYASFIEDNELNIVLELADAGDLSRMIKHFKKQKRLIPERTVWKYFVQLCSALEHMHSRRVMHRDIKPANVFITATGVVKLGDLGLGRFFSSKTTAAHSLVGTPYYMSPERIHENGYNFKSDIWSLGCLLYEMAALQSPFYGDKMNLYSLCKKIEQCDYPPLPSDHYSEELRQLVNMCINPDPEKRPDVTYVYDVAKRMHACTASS
Test [4] has as its target Cyclin-dependent kinase 18 (Homo sapiens) (UniProt Q07002). As to the kind of experiment: Inhibition of human recombinant PCTAIRE3 at 500 nM in presence of ATP by radiometric assay relative to control.
Test [5] addresses T2, NUAK family SNF1-like kinase 1 (Homo sapiens) (UniProt O60285).
T2 sequence (whole entry): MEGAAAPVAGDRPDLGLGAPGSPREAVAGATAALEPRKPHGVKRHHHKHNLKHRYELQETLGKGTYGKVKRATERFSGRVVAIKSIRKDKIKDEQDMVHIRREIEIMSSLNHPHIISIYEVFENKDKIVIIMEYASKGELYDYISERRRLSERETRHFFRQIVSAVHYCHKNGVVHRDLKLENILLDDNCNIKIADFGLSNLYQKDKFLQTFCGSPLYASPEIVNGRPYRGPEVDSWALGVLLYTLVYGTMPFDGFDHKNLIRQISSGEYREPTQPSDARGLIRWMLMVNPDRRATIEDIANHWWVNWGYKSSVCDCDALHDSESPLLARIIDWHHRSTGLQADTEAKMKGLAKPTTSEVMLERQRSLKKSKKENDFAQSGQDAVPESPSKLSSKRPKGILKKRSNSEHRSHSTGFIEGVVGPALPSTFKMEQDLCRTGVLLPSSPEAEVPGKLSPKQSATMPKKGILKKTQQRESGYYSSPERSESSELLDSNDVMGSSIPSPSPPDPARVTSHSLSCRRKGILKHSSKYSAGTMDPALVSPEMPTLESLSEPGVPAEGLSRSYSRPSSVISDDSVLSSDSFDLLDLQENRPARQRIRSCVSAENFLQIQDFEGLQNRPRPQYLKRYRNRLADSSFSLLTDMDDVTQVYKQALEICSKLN
As to the kind of experiment: Inhibition of human recombinant NuaK1 at 15 nM in presence of ATP by radiometric assay relative to control.

Sequence of Cyclin-dependent kinase 18 (Homo sapiens) (Q07002 whole entry): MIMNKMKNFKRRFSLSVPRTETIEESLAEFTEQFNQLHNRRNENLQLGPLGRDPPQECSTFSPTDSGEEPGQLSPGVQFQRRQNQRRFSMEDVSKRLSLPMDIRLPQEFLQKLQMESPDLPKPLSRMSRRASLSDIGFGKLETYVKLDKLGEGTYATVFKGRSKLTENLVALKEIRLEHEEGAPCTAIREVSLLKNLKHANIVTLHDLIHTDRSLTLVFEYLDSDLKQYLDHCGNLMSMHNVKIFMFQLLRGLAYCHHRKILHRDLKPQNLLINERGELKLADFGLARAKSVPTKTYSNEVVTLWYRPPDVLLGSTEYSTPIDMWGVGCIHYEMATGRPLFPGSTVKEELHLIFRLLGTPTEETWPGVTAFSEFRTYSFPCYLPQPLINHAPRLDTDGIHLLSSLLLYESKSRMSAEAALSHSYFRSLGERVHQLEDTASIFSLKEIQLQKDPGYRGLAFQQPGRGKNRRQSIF

`O=C(N[C@@H](C1CC1)C(F)(F)F)c1cc(-c2cnn3cc(-c4ccc(F)cc4)cnc23)cs1`: the inhibition in test [1] turned out to be 5%. Moreover, the fold change (FC) in test [2] and in test [3] was 0 in each case.
For the molecule `CNC(=O)c1ccccc1Oc1nc(Nc2cc(OC)c(OC)c(OC)c2)ncc1Br`, in test [4], the inhibition is 20%.
Consider `CC(C)[C@H](NC(=O)c1cc(-c2cnn3cc(-c4ccc(OCCN5CCCCC5)cc4)cnc23)cs1)C(F)(F)F`, for which the inhibition in test [5] turned out to be 27%.
